Tests used:
[1] = system: non-small cell lung cancer (NSCLC); test: Report on 2 patients with non-small cell lung cancer (NSCLC) who received EKB-569 after gefitinib and recurrence; format: in vivo, human; conditions: two patients (Exon 19 del E746-A750, 25 mg/day for 9 months; Exon 21 L858R, 35 mg/day for 4 months) after treatment with gefitinib and recurrence of NSCLC
Description: Report on 2 Patients with Non-Small Cell Lung Cancer (NSCLC) Who Received EKB-569.
A person with a smoking history BI 720 […] having adenocarcinoma and cT0NOM1 (multiple pulmonary metastasis). Exon 19 deletion E746-A750 is identified. Herception test score was 0+ and EGFR score 2+. The patient was given 25 mg/day EKB-569 for 9 months.
A person with a smoking history of BI 30 (10×3 years) having adenocarcinoma performance status 1, cT0N3M1 (pulmonary, brain and bone). Exon 21 point mutation L858R. HercepTest score +, EGFR score 3+, EKB-569 35 mg/day for 4 months.
Phase 1 dose-escalation study of EKB-569 was completed in Japanese patients with advanced-stage malignancies known to overexpress EGFR.

NSCLC = conditions: in some cases; re-treatment when NSCLC recurs in patients treated with gefitinib; cited from earlier work

Row | Structure (SMILES) | clinical effectiveness in NSCLC patients [1] | effectiveness of re-treatment in recurrent NSCLC (NSCLC)
1 | CCOc1cc2ncc(C#N)c(Nc3ccc(F)c(Cl)c3)c2cc1NC(=O)C=CCN(C)C [EKB-569, 4-dimethylamino-but-2-enoic acid [4-(3-chloro-4-fluoro-phenylamino)-3-cyano-7-ethoxy-quinolin-6-yl]-amide] | effective | 
2 | COc1cc2ncnc(Nc3ccc(F)c(Cl)c3)c2cc1OCCCN1CCOCC1 [gefitinib] |  | effective

Reference: patent publication US20060235046A1, “Use of an epidermal growth factor receptor kinase inhibitor (EGFR) in gefitinib resistant patients” (Wyeth, priority 2005, published 2006)
